Data from US20040053309A1, “Proteins, genes and their use for diagnosis and treatment of kidney response” (priority 2000, published 2004).

Tests used:
rats = assay: Urine biochemistry parameters in Gentamicin-treated rats; format: in vivo, rat; settings: 60 mg/kg/day
Protocol: (§1) Gentamicin, a known kidney toxin, was used to treat rats at a range of doses known to produce varying degrees of bistopathologically evident kidney response. […] The rat groups included 10 male rats per treated group, and 20 male rats in the untreated (control) group. Blood samples from rats treated at 40 mg/kg/day after 8 days were taken for proteome analysis, and kidney cortex tissue samples from rats treated at 0.1, 1.0, 10, and 40 mg/kg/day after 8 and 22 days for each group were taken for proteome analysis. Kidney cortex tissue samples were also prepared for histologic examination according to standard tissue preparation protocols.
(§2) At 60 mg/kg/day there were changes in urine biochemistry parameters (raised NAG (N-acetyl-beta-D-glucosaminidase), GGT (gamma-glutamyl-transpeptidase) and urine volume, depressed specific gravity), consistent with kidney damage.

[1] = tested on: proximal convoluted tubule epithelium of the kidney; assay: Histologic examination of kidney cortex tissue of Gentamicin-treated rats; format: in vivo, rat
Protocol: as §1, §2

Gentamicin
urine GGT (gamma-glutamyl-transpeptidase) (rats): raised | urine NAG (N-acetyl-beta-D-glucosaminidase) (rats): raised | urine specific gravity (rats): depressed | histologic examination of kidney ([1]; 60 mg/kg): single cell necrosis and loss of brush border of the proximal convoluted tubule epithelium of the kidney | histologic finding after withdrawal of treatment ([1]; seven days after the withdrawal of treatment): evidence of cortical tubular regeneration
